Test results taken from publication PMC10999543, “Identification of kinase modulators as host-directed therapeutics against intracellular methicillin-resistant Staphylococcus aureus” (Frontiers in Cellular and Infection Microbiology, 2024).
Where two headings read alike, the source gives them in different places.

Assays:
[1] = test system: HeLa cells; assay: Compound screen by flow cytometry: HeLa cell count as surrogate readout of cell viability (z-scoreHeLa); type: cell-based, human
Procedure: (§1) The cells were resuspended in cell culture medium without antibiotics, seeded with 10,000 cells/well into Costar flat-bottom 96-well plates (Corning, Amsterdam, the Netherlands), and were incubated overnight at 37°C/5% CO2. The next day, the bacteria were centrifuged at ≥1800 g for 15 min and resuspended in cold PBS + 5 mM ethylenediaminetetraacetic acid (EDTA). The number of CFUs present in the bacterial suspension was estimated from the optical density at 600 nm (OD600) by assuming 8x10^8 CFUs to be present in a bacterial suspension with OD600 = 1, based on prior titrations. The bacterial suspension was diluted in cell culture medium without antibiotics and added to the cells. Accuracy of the multiplicity of infection (MOI) was validated by plating serial dilutions of the MRSA inoculums on Difco TS agar plates (BD Biosciences). The calculated mean MOI throughout all experiments was 6.8 ± 4.6 (mean ± SD). Infected cells were centrifuged for 3 min at 150 g and incubated for 1 hour at 37°C/5% CO2. Next, the cells were incubated with fresh cell culture medium supplemented with 30 µg/ml gentamicin sulphate (Lonza BioWhittaker, Basel, Switzerland) for 15 min at 37°C/5% CO2 to kill residual extracellular bacteria. Infected cells were incubated overnight at 37°C/5% CO2 in cell culture medium in the presence of kinase inhibitors and 5 µg/ml gentamicin sulphate-containing medium to prevent the growth of extracellular bacteria. The solvent of the compounds, DMSO, was used at equal % v/v as a negative control. For the screen, each compound was tested in triplicate, on separate cell culture plates, resulting in triplicate values for each kinase inhibitor.
(§2) HeLa cells were harvested by trypsinization and fixed with 1% paraformaldehyde. Samples were measured on a FACSLyric with HTS extension (BD Biosciences). Flow cytometry data were analysed using FlowJo version 10 (TreeStar, Ashland, OR, USA). HeLa cells positive for GFP were gated to calculate the percentage of MRSA-infected cells. The cell count was used as surrogate readout of cell viability.
To minimize the possibility that the presence of extreme values on a plate affected the z-scores, raw values that deviated two-fold from the negative controls were excluded when calculating plate means and standard deviations as used in the aforementioned formula. Compounds were considered a “hit” when z-scoreMRSA+ ≤ -2 and z-scoreHeLa ≥ -3 for cell count. In cases where compounds were screened twice, the average values were used to select hit compounds.

[2] = test system: intracellular MRSA; type: cell-based, Staphylococcus aureus; conditions: for %GFP+ rep 1 / %GFP+ rep 2 / %GFP+ rep 3 / z-scoreMRSA+ mean / z-scoreMRSA+ rep 1 / z-scoreMRSA+ rep 2 / z-scoreMRSA+ rep 3: MRSA-infected HeLa cells; for %GFP+ rep 1 / z-scoreMRSA+ rep 1: replicate 1; for %GFP+ rep 2 / z-scoreMRSA+ rep 2: replicate 2; for %GFP+ rep 3 / z-scoreMRSA+ rep 3: replicate 3; for z-scoreMRSA+ mean: mean of 3 replicates
Procedure: as §1, §2
To identify potential “hit” compounds, the flow cytometry data were used to calculate standard z-scores using z = (x-μ)/σ – zneg, where x is total event count or the percent of GFP-positive cells from a single well, μ is the mean from wells of the plate, σ is the standard deviation of the plate and zneg is the mean z-score of the negative control of the plate (i.e., DMSO) ([Korbee et al., 2018]). To minimize the possibility that the presence of extreme values on a plate affected the z-scores, raw values that deviated two-fold from the negative controls were excluded when calculating plate means and standard deviations as used in the aforementioned formula. Compounds were considered a “hit” when z-scoreMRSA+ ≤ -2 and z-scoreHeLa ≥ -3 for cell count. In cases where compounds were screened twice, the average values were used to select hit compounds.

[3] = PKIS compound screen raw data, HeLa cell count, replicate 1
[4] = PKIS compound screen raw data, HeLa cell count, replicate 2
[5] = PKIS compound screen raw data, HeLa cell count, replicate 3
[6] = PKIS compound screen, HeLa cell count, mean of 3 replicates
[7] = PKIS compound screen, HeLa cell count, replicate 1
[8] = PKIS compound screen, HeLa cell count, replicate 2
[9] = PKIS compound screen, HeLa cell count, replicate 3
[10] = PKIS compound screen, Yes/No call on z-scoreHeLa
[11] = PKIS compound screen, Yes/No call (effect without cell death)
[12] = PKIS compound screen, Yes/No call on z-scoreMRSA+
[13] = PKIS compounds raw data, replicate 1, HeLa cell count
[14] = PKIS compounds raw data, replicate 2, HeLa cell count
[15] = PKIS compounds raw data, replicate 3, HeLa cell count
[16] = compound screen, HeLa cell count, mean of 3 replicates
[17] = compound screen, HeLa cell count, replicate 1
[18] = compound screen, HeLa cell count, replicate 2
[19] = compound screen, HeLa cell count, replicate 3
[20] = Yes/No: effect without cell death

Row | Structure (SMILES) | cell count rep 1 [1, 3] | cell count rep 2 [1, 4] | cell count rep 3 [1, 5] | z-scoreHeLa mean [1, 6] | z-scoreHeLa rep 1 [1, 7] | z-scoreHeLa rep 2 [1, 8] | z-scoreHeLa rep 3 [1, 9] | cell death [1, 10] | %GFP+ rep 1 ([2]; PKIS compound screen raw data) | %GFP+ rep 2 ([2]; PKIS compound screen raw data) | %GFP+ rep 3 ([2]; PKIS compound screen raw data) | z-scoreMRSA+ mean ([2]; PKIS compound screen) | z-scoreMRSA+ rep 1 ([2]; PKIS compound screen) | z-scoreMRSA+ rep 2 ([2]; PKIS compound screen) | effect ([2]; Yes/No call from z-scoreMRSA+) | hit [2, 20] | z-scoreMRSA+ mean ([2]; compound screen) | z-scoreMRSA+ rep 1 ([2]; compound screen) | z-scoreMRSA+ rep 2 ([2]; compound screen) | z-scoreMRSA+ rep 3 ([2]; compound screen) | also measured
1 | O=C(O[C@H]1CN[C@H](C#Cc2cc3ncnc(Nc4ccc5c(cnn5Cc5ccccc5)c4)c3s2)C1)N1CCOCC1 [GSK200398A] | 22424 | 29797 | 30147 | -0.74 | 0.35 | -0.93 | -1.65 | No | 12.7% | 13.5% | 14.0% | -1.64 | -1.64 | -1.51 |  |  |  |  |  |  | z-scoreMRSA+ rep 3 ([2]; PKIS compound screen): -1.76; hit [2, 11]: No; effect [2, 12]: No
2 | COc1cc2c(Nc3cccc(NC(=O)c4ccccc4)c3)ncnc2cc1OCCCN1CCOCC1 [GSK223810A] | 28720 | 24881 | 20680 | 0.00813 | -0.25 | -0.07 | 0.34 | No | 19.8% | 21.2% | 22.6% | 0.38 | 0.27 | 0.49 |  |  |  |  |  |  | z-scoreMRSA+ rep 3 ([2]; PKIS compound screen): 0.37; hit [2, 11]: No; effect [2, 12]: No
3 | CN(C)C(=O)O[C@@H]1CN[C@@H](C#Cc2cc3ncnc(Nc4ccc(OCc5cccc(F)c5)c(Cl)c4)c3s2)C1 [GSK238063A] |  |  |  |  |  |  |  |  |  |  |  |  |  |  | No | No | -1.52 | -1.46 | -1.30 | -1.81 | cell count rep 1 [1, 13]: 3194; cell count rep 2 [1, 14]: 3723; cell count rep 3 [1, 15]: 4546; cell death ([1]; Yes/No call from z-scoreHeLa): No; z-scoreHeLa mean [1, 16]: -1.00; z-scoreHeLa rep 1 [1, 17]: -1.43; z-scoreHeLa rep 2 [1, 18]: -0.41; z-scoreHeLa rep 3 [1, 19]: -1.16; %GFP+ rep 1 ([2]; PKIS compounds raw data): 8.6%; %GFP+ rep 2 ([2]; PKIS compounds raw data): 9.6%; %GFP+ rep 3 ([2]; PKIS compounds raw data): 9.8%
4 | CS(=O)(=O)CCNCc1cc(-c2cc3c(Nc4ccc(OCc5cccc(F)c5)c(Cl)c4)ncnc3s2)cs1 [GSK300014A] | 28943 | 38150 | 46044 | 0.95 | 1.34 | 0.63 | 0.88 | No | 19.5% | 21.9% | 21.6% | 0.70 | 0.52 | 1.02 |  |  |  |  |  |  | z-scoreMRSA+ rep 3 ([2]; PKIS compound screen): 0.55; hit [2, 11]: No; effect [2, 12]: No
5 | COc1cc2c(Nc3ccc(NC(=O)c4ccccc4)cc3)ncnc2cc1OCCCN1CCOCC1 [GSK301329A] |  |  |  |  |  |  |  |  | 25.2% | 24.6% | 21.9% |  |  |  | No | No | 0.13 | -0.0173 | 0.48 | -0.09 | cell death [1]: No; cell count rep 1 ([1]; human): 4010; cell count rep 2 ([1]; human): 4052; cell count rep 3 ([1]; human): 5236; z-scoreHeLa mean ([1]; human): -0.15; z-scoreHeLa rep 1 ([1]; human): -0.25; z-scoreHeLa rep 2 ([1]; human): -0.19; z-scoreHeLa rep 3 ([1]; human): -0.00157
6 | O=S(=O)(c1cccc(F)c1)c1ccc(Nc2ncnc3cc(Br)sc23)cc1Cl [GSK306886A] |  |  |  |  |  |  |  |  |  |  |  |  |  |  | No | No | -0.25 | 0.00934 | 0.10 | -0.85 | cell count rep 1 [1, 13]: 2697; cell count rep 2 [1, 14]: 1761; cell count rep 3 [1, 15]: 5093; cell death ([1]; Yes/No call from z-scoreHeLa): No; z-scoreHeLa mean [1, 16]: -1.56; z-scoreHeLa rep 1 [1, 17]: -1.88; z-scoreHeLa rep 2 [1, 18]: -1.89; z-scoreHeLa rep 3 [1, 19]: -0.89; %GFP+ rep 1 ([2]; PKIS compounds raw data): 13.2%; %GFP+ rep 2 ([2]; PKIS compounds raw data): 13.8%; %GFP+ rep 3 ([2]; PKIS compounds raw data): 13.0%
7 | CS(=O)(=O)Cc1ccc(Nc2nccc(-c3c(-c4cccc(NC(=O)C5CCCCC5)c4)nn4ncccc34)n2)cc1 [GSK350559A] | 4919 | 4109 | 4941 |  |  |  |  |  | 15.3% | 15.9% | 16.3% |  |  |  | No | No | -1.91 | -2.32 | -1.63 | -1.77 | cell death ([1]; Yes/No call from z-scoreHeLa): No; z-scoreHeLa mean [1, 16]: 0.0244; z-scoreHeLa rep 1 [1, 17]: 0.41; z-scoreHeLa rep 2 [1, 18]: -0.15; z-scoreHeLa rep 3 [1, 19]: -0.19
